Experiments:
[1] = system: RSV (RSV A2 ECACC, 0709161v); experiment: RSV plaque reduction assay; type: cell-based, respiratory syncytial virus; settings: human respiratory syncytial virus, HepG2, read-out: RSV A2 Plaque EC50, RSV A2 in Hep-G2 cells; mean of at least two experiments unless noted (n = 1)
Experimental: Compounds w ere subjected to RSV plaque reduction assays according to the following protocol.
Hep-G2 cells (ECACC, 85011430) were passaged in flasks and seeded in 24-well plates in DMEM containing antibiotics and supplemented with 10% FBS. During inoculation and subsequent incubation, cells were cultured in DMEM containing 2% FBS. 100 plaque forming unit/well of RSV (RSV A2 ECACC, 0709161v) was mixed with eight serial dilutions of compound. Subsequently, 100 μL of the virus/compound mixtures was added to confluent Hep-G2 cell monolayers. The cells and virus/compound mixtures were incubated at 37° C. in a humidified 5% CO2 incubator for 2 h prior to removal of the inoculum and addition of 1 mL of overlay (DMEM containing 2% FBS and 0.8% CMC) containing compound dilutions. The cells and were incubated at 37° C. in a humidified 5% CO2 incubator for 2 days.
Cells were washed with PBS before adding 75/25% v/v EtOH MeOH, for 3 min. Fixative was removed and plates were washed with PBS. A pre-titrated amount of the primary antibody was added in 200 μL PBS/2% milk powder, and plates incubated for 90 min at 37° C. The plates were washed 3 times with PBS/0.05% Tween20 before addition of rabbit anti-goat horse radish peroxidase in 200 μL PBS/2% milk powder, and incubated for 1 h at 37° C. Following three wash steps with PBS/0.05% Tween20, 200 μL ready-to-use TrueBlue was added and plates were incubated at rt for 10-15 min before washing with water. After removal of water, plates were air-dried in the dark.
Plates were scanned and analysed using the Immunospot S6 Macro analyser, which is equipped with BioSpot analysis software for counting immunostained plaques (virospots). Plaque counts were used to calculate % infection relative to the mean of the plaque count in the virus control wells for RSV. […] Unless otherwise noted, plaque EC50 and cell toxicity CC50 values are a mean of at least two experiments and figures are rounded to whole units.

cell toxicity CC50 = type: cell-based; settings: human; Hep-G2 cells; mean of at least two experiments; read-out: Cell Cytotoxicity CC50

SMILES	EC50 [1]	CC50 (cell toxicity CC50)
CC1(C)CCn2nc(-c3ccccc3F)c(C(=O)N[C@H]3N=C(c4ccccc4)c4cccc(F)c4NC3=O)c2O1 [Example 5, N-[(3S)-9-fluoro-2-oxo-5-phenyl-2,3-dihydro-1H-1,4-benzodiazepin-3-yl]-2-(2-fluorophenyl)-5,5-dim ethyl-5H,6H,7H-pyrazolo[3,2-b][1,3]oxazine-3 carboxamide]	0.054 µM	> 25 µM
Cc1ccccc1-c1nn2c(c1C(=O)N[C@H]1N=C(c3ccccc3)c3cccc(F)c3NC1=O)OCCC2 [Example 6, N-[(3S)-9-Fluoro-2-oxo-5-phenyl-1,3-dihydro-1,4-benzodiazepin-3-yl]-2-(2-methylphenyl)-6,7-dihydro-5H-pyrazolo[5,1-b][1,3]oxazine-3-carboxamide]	0.165 µM	> 25 µM
O=C(N[C@H]1N=C(c2ccccc2)c2cccc(F)c2NC1=O)c1c(-c2ccccc2F)nn2c1OC1(CC2)CC1 [Example 7, N-[(3S)-9-fluoro-2-oxo-5-phenyl-1,3-dihydro-1,4-benzodiazepin-3-yl]-2-(2-fluorophenyl)spiro[6,7-dihydropyrazolo[5,1-b][1,3]oxazine-5,1′-cyclopropane]-3-carboxamide]	0.032 µM	> 25 µM
CC(C)C1CCn2nc(-c3ccccc3F)c(C(=O)N[C@H]3N=C(c4ccccc4)c4cccc(F)c4NC3=O)c2O1 (stereo partly drawn) [Example 8, N-[(3S)-9-fluoro-2-oxo-5-phenyl-2,3-dihydro-1H-1,4-benzodiazepin-3-yl]-2-(2-fluorophenyl)-5-(propan-2-yl)-5H,6H,7H-pyrazolo[3,2-b][1,3]oxazine-3-carboxamide]	0.037 µM	> 25 µM
C[C@@H]1COc2c(C(=O)N[C@H]3N=C(c4ccccc4)c4cccc(F)c4NC3=O)c(-c3ccccc3F)nn2C1 [Example 9, (6S)-N-[(3S)-9-fluoro-2-oxo-5-phenyl-1,3-dihydro-1,4-benzodiazepin-3-yl]-2-(2-fluorophenyl)-6-methyl-6,7-dihydro-5H-pyrazolo[5,1-b][1,3]oxazine-3-carboxamide]	0.03 µM	> 18.8 µM
C[C@H]1COc2c(C(=O)N[C@H]3N=C(c4ccccc4)c4cccc(F)c4NC3=O)c(-c3ccccc3F)nn2C1 [Example 10, (6R)-N-[(3S)-9-fluoro-2-oxo-5-phenyl-1,3-dihydro-1,4-benzodiazepin-3-yl]-2-(2-fluorophenyl)-6-methyl-6,7-dihydro-5H-pyrazolo[5,1-b][1,3]oxazine-3-carboxamide]	0.023 µM	> 25 µM
CCC1COc2c(C(=O)N[C@H]3N=C(c4ccccc4)c4cccc(F)c4NC3=O)c(-c3ccccc3F)nn2C1 (stereo partly drawn) [Example 11, 6-Ethyl-N-[(3S)-9-fluoro-2-oxo-5-phenyl-2,3-dihydro-1H-1,4-benzodiazepin-3-yl]-2-(2-fluorophenyl)-5H,6H,7H-pyrazolo[3,2-b][1,3]oxazine-3-carboxamide]	0.033 µM	> 25 µM
CC(C)C1COc2c(C(=O)N[C@H]3N=C(c4ccccc4)c4cccc(F)c4NC3=O)c(-c3ccccc3F)nn2C1 (stereo partly drawn) [Example 12, N-[(3S)-9-Fluoro-2-oxo-5-phenyl-2,3-dihydro-1H-1,4-benzodiazepin-3-yl]-2-(2-flurophenyl)-6-(propan-2-yl)-5H,6H,7H-pyrazolo[3,2-b][1,3]oxazine-3-carboxamide]	0.039 µM	> 25 µM
O=C(N[C@H]1N=C(c2ccccc2)c2cccc(F)c2NC1=O)c1c(-c2ccccc2F)nn2c1OCC1(CC1)C2 [Example 13]	0.028 µM	> 24 µM
CCCC1COc2c(C(=O)N[C@H]3N=C(c4ccccc4)c4cccc(F)c4NC3=O)c(-c3ccccc3F)nn2C1 (stereo partly drawn) [Example 14, N-[(3S)-9-fluoro-2-oxo-5-phenyl-2,3-dihydro-1H-1,4-benzodiazepin-3-yl]-2-(2-fluorophenyl)-6-propyl-5H,6H,7H-pyrazolo[3,2-b][1,3]oxazine-3-carboxamide]	0.036 µM	> 25 µM
O=C(N[C@H]1N=C(c2ccccc2)c2cccc(F)c2NC1=O)c1c(-c2ccc(NC3CC3)nc2)nn2c1OCCC2 [Example 15, 2-[6-(Cyclopropylamino)pyridin-3-yl]-N-[(3S)-9-fluoro-2-oxo-5-phenyl-1,3-dihydro-1,4-benzodiazepin-3-yl]-6,7-dihydro-5H-pyrazolo[5,1-b][1,3]oxazine-3-carboxamide]	0.03 µM	> 25 µM
O=C(N[C@H]1N=C(c2ccccc2)c2ccccc2NC1=O)c1c(-c2cccnc2)nn2c1OCCC2 [Example 16, N-[(3S)-2-Oxo-5-phenyl-1,3-dihydro-1,4-benzodiazepin-3-yl]-2-pyridin-3-yl-6,7-dihydro-H-pyrazolo[5,1-b][1,3]oxazine-3-carboxamide]	0.454 µM	> 25 µM
O=C(N[C@H]1N=C(c2ccccc2)c2cccc(F)c2NC1=O)c1c(-c2cccnc2)nn2c1OCCC2 [Example 17, N-[(3S)-9-Fluoro-2-oxo-5-phenyl-1,3-dihydro-1,4-benzodiazepin-3-yl]-2-pyridin-3-yl-6,7-dihydro-5H-pyrazolo[5,1-b][1,3]oxazine-3-carboxamide]	0.18 µM	> 25 µM
O=C(N[C@H]1N=C(c2ccccc2)c2cccc(F)c2NC1=O)c1c(-c2ccc(C3CC3)nc2)nn2c1OCCC2 [Example 18, 2-(6-Cyclopropylpyridin-3-yl)-N-[(3S)-9-fluoro-2-oxo-5-phenyl-1,3-dihydro-1,4-benzodiazepin-3-yl]-6,7-dihydro-5H-pyrazolo[5,1-b][1,3]oxazine-3-carboxamide]	0.096 µM	> 25 µM
CC(C)Nc1ccc(-c2nn3c(c2C(=O)N[C@H]2N=C(c4ccccc4)c4cccc(F)c4NC2=O)OCCC3)cn1 [Example 19, N-[(3S)-9-fluoro-2-oxo-5-phenyl-1,3-dihydro-1,4-benzodiazepin-3-yl]-2-[6-(propan-2-ylamino)pyridin-3-yl]-6,7-dihydro-5H-pyrazolo[5,1-b][1,3]oxazine-3-carboxamide]	0.031 µM	> 25 µM
CCNc1ccc(-c2nn3c(c2C(=O)N[C@H]2N=C(c4ccccc4)c4cccc(F)c4NC2=O)OCCC3)cn1 [Example 20, 2-[6-(Ethylamino)pyridin-3-yl]-N-[(3S)-9-fluoro-2-oxo-5-phenyl-1,3-dihydro-1,4-benzodiazepin-3-yl]-6,7-dihydro-5H-pyrazolo[5,1-b][1,3]oxazine-3-carboxamide]	0.042 µM	> 25 µM
O=C(N[C@H]1N=C(c2ccccc2)c2cccc(F)c2NC1=O)c1c(-c2ccccc2F)nn2c1OCCC2 [Example 21, N-[(3S)-9-fluoro-2-oxo-5-phenyl-1,3-dihydro-1,4-benzodiazepin-3-yl]-2-(2-fluorophenyl)-6,7-dihydro-5H-pyrazolo[5,1-b][1,3]oxazine-3-carboxamide]	0.064 µM	> 25 µM
O=C(N[C@H]1N=C(c2ccccc2)c2ccccc2NC1=O)c1c(-c2ccccc2)nn2c1OCCC2 [Example 22, N-[(3S)-2-oxo-5-phenyl-1,3-dihydro-1,4-benzodiazepin-3-yl]-2-phenyl-6,7-dihydro-5H-pyrazolo[5,1-b][1,3]oxazine-3-carboxamide]	0.14 µM	> 25 µM
O=C(N[C@H]1N=C(c2ccccc2)c2cccc(F)c2NC1=O)c1c(-c2ccccc2)nn2c1OCCC2 [Example 23, N-[(3S)-9-fluoro-2-oxo-5-phenyl-1,3-dihydro-1,4-benzodiazepin-3-yl]-2-phenyl-6,7-dihydro-5H-pyrazolo[5,1-b][1,3]oxazine-3-carboxamide]	0.06 µM	> 25 µM
C[C@@H]1CCn2nc(-c3ccccc3F)c(C(=O)N[C@H]3N=C(c4ccccc4)c4ccccc4NC3=O)c2O1 [Example 24, (5R)-2-(2-Fluorophenyl)-5-methyl-N-[(3S)-2-oxo-5-phenyl-1,3-dihydro-1,4-benzodiazepin-3-yl]-6,7-dihydro-5H-pyrazolo[5,1-b][1,3]oxazine-3-carboxamide]	0.077 µM	> 25 µM
C[C@H]1CCn2nc(-c3ccccc3F)c(C(=O)N[C@H]3N=C(c4ccccc4)c4ccccc4NC3=O)c2O1 [Example 26, (5S)-2-(2-Fluorophenyl)-5-methyl-N-[(3S)-2-oxo-5-phenyl-1,3-dihydro-1,4-benzodiazepin-3-yl]-6,7-dihydro-5H-pyrazolo[5,1-b][1,3]oxazine-3-carboxamide]	0.043 µM	> 25 µM
O=C(N[C@H]1N=C(c2ccccc2)c2ccccc2NC1=O)c1c(-c2ccccc2)nn2c1OCC1(COC1)C2 [Example 28, N-[(3S)-2-oxo-5-phenyl-1,3-dihydro-1,4-benzodiazepin-3-yl]-2-phenylspiro[5,7-dihydropyrazolo[5,1-b][1,3]oxazine-6,3′-oxetane]-3-carboxamide]	0.076 µM	> 25 µM
O=C(N[C@H]1N=C(c2ccccc2)c2ccccc2NC1=O)c1c(-c2ccccc2F)nn2c1OCC1(COC1)C2 [Example 29]	0.078 µM	> 25 µM

From patent US12678446B2 (PFIZER INC., priority 2020, dated 2026)
